From BigSolDB 2.1

CC(=O)Nc1ccc([N+](=O)[O-])cc1
solubility (mole fraction)
Conditions | 278.15 K | 283.15 K | 288.15 K | 293.15 K | 298.15 K | 303.15 K | 308.15 K | 313.15 K | 318.15 K | 323.15 K
in 1,4-dioxane | – | – | 0.00627 | 0.00697 | 0.00787 | 0.00907 | 0.0107 | 0.0127 | 0.0151 | 0.0182
in DMF | 0.102 | 0.107 | 0.112 | 0.118 | 0.126 | 0.135 | 0.145 | 0.156 | 0.171 | 0.187
in NMP | 0.0745 | 0.0841 | 0.0984 | 0.111 | 0.126 | 0.144 | 0.163 | 0.184 | 0.21 | 0.244
in acetonitrile | 0.00235 | 0.00271 | 0.00325 | 0.00386 | 0.00456 | 0.00545 | 0.0065 | 0.00778 | 0.00923 | 0.011
in cyclohexane | – | 1.94e-06 | 2.71e-06 | 3.77e-06 | 5.18e-06 | 6.81e-06 | 8.98e-06 | 1.16e-05 | 1.49e-05 | 1.91e-05
in ethanol | 0.00182 | 0.00222 | 0.00265 | 0.00318 | 0.00377 | 0.00458 | 0.00542 | 0.00641 | 0.00772 | 0.00921
in ethyl acetate | 0.00357 | 0.00414 | 0.00481 | 0.00562 | 0.00682 | 0.00824 | 0.00993 | 0.0118 | 0.0144 | 0.0171
in ethylene glycol | 0.000807 | 0.000953 | 0.00114 | 0.00141 | 0.00171 | 0.00208 | 0.00246 | 0.00301 | 0.00367 | 0.00451
in isobutanol | 0.00132 | 0.00158 | 0.00193 | 0.00233 | 0.00284 | 0.00335 | 0.00405 | 0.00488 | 0.00602 | 0.00728
in isopropanol | 0.00166 | 0.00201 | 0.00241 | 0.00292 | 0.00348 | 0.00436 | 0.00515 | 0.0062 | 0.00736 | 0.00868
in methanol | 0.00147 | 0.00182 | 0.00215 | 0.00261 | 0.00312 | 0.00366 | 0.00441 | 0.00543 | 0.0065 | 0.00772
in n-butanol | 0.00225 | 0.0026 | 0.00308 | 0.0036 | 0.0043 | 0.00512 | 0.0062 | 0.0074 | 0.00894 | 0.0106
in n-heptanol | 0.00264 | 0.00303 | 0.00354 | 0.00417 | 0.00508 | 0.00621 | 0.00742 | 0.00911 | 0.0108 | 0.013
in n-propanol | 0.0021 | 0.00251 | 0.00297 | 0.00352 | 0.00418 | 0.00496 | 0.00595 | 0.00714 | 0.00856 | 0.0101
in water | 6.37e-06 | 7.72e-06 | 1.04e-05 | 1.34e-05 | 1.68e-05 | 2.23e-05 | 2.89e-05 | 3.67e-05 | 4.69e-05 | 6.01e-05
